Laboratory results taken from patent US12642794B2, “Dose regimens for use of LY3154207 in the treatment of dopaminergic CNS disorders” (Eli Lilly and Company, priority 2018, dated 2026).

Test system: participants with PD
Assay: HBEC motor examination subscore, MDS-UPDRS Part III
Assay type: in vivo, human
Settings: 14-day treatment, 75 mg and 75 mg titration
Method: FIG. 4: Study HBEC, motor symptoms in PD patients in 14-day treatment with LY3154207. Participants with PD, treated with LY3154207, motor examination subscores compared to those treated with placebo, as measured by MDS-UPDRS Part III. Cohort 5 (LY 75 mg), Cohort 6 (LY 75 mg titration) (Participants with PD in Cohort 6 received 15 mg on Days 1-3 and 30 mg on Days 4-6), Cohort 5/6 (PBO).
Study outcomes included 24-hour ambulatory blood pressure monitoring (ABPM), treatment-emergent adverse events (TEAEs), and PK assessments in both healthy subjects and participants with PD, as well as Movement Disorder Society-United Parkinson's Disease Rating Scale (MDS-UPDRS) assessments to evaluate the impact of LY3154207 on motor function in participants with PD. The objective was to explore the safety, tolerability, and pharmacokinetics (PK) of multiple oral daily dosing of LY3154207 in healthy subjects (Part A) and in participants with PD (Part B).

SMILES: C[C@H]1c2cccc(CCC(C)(C)O)c2C[C@H](CO)N1C(=O)Cc1c(Cl)cccc1Cl [LY3154207]
- motor examination subscore, MDS-UPDRS Part III, compared to placebo: more consistent improvement
